In series [1] the test system is DNA Synthesis. As to the kind of experiment: Safety Assessment: DNA Synthesis.
For series [2], the system named is Cell Viability.
For series [3], the system named is RedOx State.
Series [4] addresses T1, CYP1A2 (Homo sapiens, UniProt P05177).
T1 sequence (P05177 1-516): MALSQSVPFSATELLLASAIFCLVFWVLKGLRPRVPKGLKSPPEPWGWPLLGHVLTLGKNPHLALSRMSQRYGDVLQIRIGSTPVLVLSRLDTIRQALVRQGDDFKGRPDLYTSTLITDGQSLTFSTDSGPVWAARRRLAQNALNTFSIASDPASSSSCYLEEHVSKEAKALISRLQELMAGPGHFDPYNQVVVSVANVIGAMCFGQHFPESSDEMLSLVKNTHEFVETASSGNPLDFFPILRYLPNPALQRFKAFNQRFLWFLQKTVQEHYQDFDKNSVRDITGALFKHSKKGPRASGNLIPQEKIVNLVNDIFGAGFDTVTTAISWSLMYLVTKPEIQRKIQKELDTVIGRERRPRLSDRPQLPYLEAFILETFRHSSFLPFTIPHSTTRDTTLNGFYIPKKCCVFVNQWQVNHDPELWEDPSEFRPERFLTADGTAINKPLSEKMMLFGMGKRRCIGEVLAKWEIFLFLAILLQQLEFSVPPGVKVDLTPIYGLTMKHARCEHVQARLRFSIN
Kind of series: In Vitro Metabolism (isozymes of P450) CYP1A2.

The conditions of series [5]: pH 7.5.
Series [6] deals with CYP2C9 (Homo sapiens, UniProt P11712).
Series [7] relates to Protein Synthesis. Kind of series: Safety Assessment: Protein Synthesis.
In series [8] the target is CYP2D6 (Homo sapiens, UniProt P10635).
The target in series [9] is CYP3A4 (Homo sapiens, UniProt P08684).
Series [10] concerns Caspase-3.
Series [11] in a line: in vitro.
Series [12] can be described thus: Permeability. The series is classed as in vitro ADME. The conditions noted are these: not told; read-out: Permeability PupperX10^6 cm/s.
The target in series [13] is CYP2C19 (Homo sapiens, UniProt P33261).
Series [14] concerns GSH Level.
In series [15] the test system is Membrane Integrity.
In series [16] the target is T2, sigma-1 receptor (guinea pig brain) (Cavia porcellus, UniProt Q60492).
T2 construct: from tissue; host or cells: guinea pig brain
Kind of series: Antagonism of haloperidol binding to guinea pig sigma-1 receptors. As to conditions: sigma-1, guinea pig brain.

Series [17] is described as follows: physchem.

Structures are written as SMILES. Converted amounts (≈) assume the structure as drawn.

T2 sequence (Q60492 whole entry): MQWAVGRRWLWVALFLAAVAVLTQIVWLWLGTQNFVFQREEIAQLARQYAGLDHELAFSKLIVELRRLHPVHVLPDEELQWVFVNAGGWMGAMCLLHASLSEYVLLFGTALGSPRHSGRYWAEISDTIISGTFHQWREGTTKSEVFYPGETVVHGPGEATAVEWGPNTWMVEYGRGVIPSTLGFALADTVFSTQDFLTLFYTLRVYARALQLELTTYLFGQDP
CYP2D6, sequence (P10635 whole entry): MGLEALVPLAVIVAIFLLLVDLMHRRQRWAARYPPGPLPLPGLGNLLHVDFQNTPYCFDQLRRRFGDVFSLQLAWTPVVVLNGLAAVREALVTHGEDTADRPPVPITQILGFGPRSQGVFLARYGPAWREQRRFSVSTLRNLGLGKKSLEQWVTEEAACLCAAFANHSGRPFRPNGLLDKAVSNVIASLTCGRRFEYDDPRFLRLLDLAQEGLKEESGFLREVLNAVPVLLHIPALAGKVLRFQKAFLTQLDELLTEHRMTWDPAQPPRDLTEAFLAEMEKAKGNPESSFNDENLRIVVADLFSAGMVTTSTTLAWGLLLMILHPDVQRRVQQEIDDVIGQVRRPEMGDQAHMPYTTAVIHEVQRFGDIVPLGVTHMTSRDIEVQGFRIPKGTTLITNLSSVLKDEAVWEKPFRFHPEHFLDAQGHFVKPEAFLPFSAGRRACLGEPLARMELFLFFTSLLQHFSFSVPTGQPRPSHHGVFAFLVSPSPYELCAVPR
CYP2C19, sequence (P33261 whole entry): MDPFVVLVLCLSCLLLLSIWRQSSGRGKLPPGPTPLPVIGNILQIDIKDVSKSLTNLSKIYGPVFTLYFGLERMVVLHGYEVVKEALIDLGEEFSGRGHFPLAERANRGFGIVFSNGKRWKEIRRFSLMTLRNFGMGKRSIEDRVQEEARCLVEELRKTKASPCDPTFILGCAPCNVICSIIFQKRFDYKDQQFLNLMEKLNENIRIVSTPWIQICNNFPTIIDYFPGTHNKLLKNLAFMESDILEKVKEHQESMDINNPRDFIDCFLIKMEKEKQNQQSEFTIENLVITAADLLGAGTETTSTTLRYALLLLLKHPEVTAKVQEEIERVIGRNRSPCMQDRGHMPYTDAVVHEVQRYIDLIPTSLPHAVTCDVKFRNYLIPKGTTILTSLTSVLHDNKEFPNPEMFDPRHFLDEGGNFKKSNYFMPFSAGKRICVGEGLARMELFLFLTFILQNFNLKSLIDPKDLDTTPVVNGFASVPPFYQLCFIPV
CYP2C9, sequence (P11712 whole entry): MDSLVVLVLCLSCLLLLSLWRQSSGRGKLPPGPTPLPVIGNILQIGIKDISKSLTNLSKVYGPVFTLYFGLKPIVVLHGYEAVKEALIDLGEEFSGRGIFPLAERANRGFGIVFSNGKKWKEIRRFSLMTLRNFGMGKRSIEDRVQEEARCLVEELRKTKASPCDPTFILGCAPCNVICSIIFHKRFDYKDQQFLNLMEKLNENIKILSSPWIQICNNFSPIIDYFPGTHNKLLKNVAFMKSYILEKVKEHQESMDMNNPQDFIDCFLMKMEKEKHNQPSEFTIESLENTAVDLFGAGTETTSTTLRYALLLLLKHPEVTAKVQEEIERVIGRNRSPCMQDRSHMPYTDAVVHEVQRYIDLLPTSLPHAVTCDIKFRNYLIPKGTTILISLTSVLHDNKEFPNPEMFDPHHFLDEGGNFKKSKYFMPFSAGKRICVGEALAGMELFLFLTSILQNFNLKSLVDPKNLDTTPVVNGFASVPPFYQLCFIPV
CYP3A4, sequence (P08684 whole entry): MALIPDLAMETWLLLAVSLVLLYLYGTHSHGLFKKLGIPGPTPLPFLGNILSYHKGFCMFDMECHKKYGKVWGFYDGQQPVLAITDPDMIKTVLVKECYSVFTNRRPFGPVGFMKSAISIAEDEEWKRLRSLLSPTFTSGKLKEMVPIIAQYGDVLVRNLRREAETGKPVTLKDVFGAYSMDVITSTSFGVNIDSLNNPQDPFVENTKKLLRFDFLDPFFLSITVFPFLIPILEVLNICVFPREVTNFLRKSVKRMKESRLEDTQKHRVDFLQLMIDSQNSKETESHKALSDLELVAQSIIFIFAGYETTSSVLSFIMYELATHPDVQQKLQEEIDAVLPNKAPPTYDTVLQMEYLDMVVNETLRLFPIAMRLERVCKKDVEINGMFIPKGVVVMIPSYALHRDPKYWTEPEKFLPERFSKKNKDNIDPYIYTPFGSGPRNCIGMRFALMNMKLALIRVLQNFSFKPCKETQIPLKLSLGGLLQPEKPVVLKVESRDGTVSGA

Turning to `O=C1CCC2(CCNCC2)Nc2ccccc21` [Compound 11, 3,4-Dihydrospiro[5H-1-benzazepine-2(1H), 4′-piperidin]-5-one], in [1], the “DNA Synthesis” value is listed as less than 10 % inhibition. Also, in [2], the “Cell Viability” value is reported as less than 10 % inhibition. In addition, the “RedOx State” value in series [3] was less than 10 % inhibition. Further, the CYP1A2 in [4] is less than 10 % inhibition. Also, the “Log D7.5” value in [5] stood at 0.48. In series [6], this compound registered a CYP2C9 of less than 10 % inhibition. For the same compound, the “Protein Synthesis” value in series [7] is reported as 42 % inhibition. In series [8], this compound had a CYP2D6 of 15 % inhibition. Moreover, the CYP3A4 in series [9] is less than 10 % inhibition. Besides, the “Caspase-3 Induction % Induction” value in [10] was less than 10 % Induction. In series [11], the fraction unbound was 0.3. Further, the Papp in [12] worked out at 4.7 ×10⁻⁶ cm/s. In series [13], this compound had a CYP2C19 of less than 10 % inhibition. The “GSH Level (% Control)” value in [14] is listed as less than 10 % Control. Besides, the “Membrane Integrity” value in [15] is listed as less than 10 % inhibition. The concentration for half-maximal inhibition (IC50) in series [16] was more than 1 µM. In addition, in [16] (test concentration not given), the “% Inhibition” value was less than 50%. In series [17], this compound gave a solubility of 202 µM (≈ 46.5 µg/mL).
